Among the data in PubChem BioAssay AID1645866 (Buhrlage Lab, Dana-Farber Cancer Institute and Novartis …, 2021) are IC50 values, retold here.

The structures appear in SMILES notation. The source made the active and inactive calls.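 The calls were made as follows: active = in confirmatory dose-response testing, peak deubiquitinase inhibition of 30% or more; inactive = the rest.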

In the test the target is Ubiquitin carboxyl-terminal hydrolase 28 (Homo sapiens) (UniProt Q96RU2). Description: Ubiquitin-specific peptidase 28 DUB inhibitors, biochemical concentration-dependence assay, validation of primary screening hits (AID 1645866). Conditions: purified USP28, ubiquitin-rhodamine fluorescence, 30 min.
Chain of Ubiquitin carboxyl-terminal hydrolase 28 (Homo sapiens) (Q96RU2 whole entry, looked up): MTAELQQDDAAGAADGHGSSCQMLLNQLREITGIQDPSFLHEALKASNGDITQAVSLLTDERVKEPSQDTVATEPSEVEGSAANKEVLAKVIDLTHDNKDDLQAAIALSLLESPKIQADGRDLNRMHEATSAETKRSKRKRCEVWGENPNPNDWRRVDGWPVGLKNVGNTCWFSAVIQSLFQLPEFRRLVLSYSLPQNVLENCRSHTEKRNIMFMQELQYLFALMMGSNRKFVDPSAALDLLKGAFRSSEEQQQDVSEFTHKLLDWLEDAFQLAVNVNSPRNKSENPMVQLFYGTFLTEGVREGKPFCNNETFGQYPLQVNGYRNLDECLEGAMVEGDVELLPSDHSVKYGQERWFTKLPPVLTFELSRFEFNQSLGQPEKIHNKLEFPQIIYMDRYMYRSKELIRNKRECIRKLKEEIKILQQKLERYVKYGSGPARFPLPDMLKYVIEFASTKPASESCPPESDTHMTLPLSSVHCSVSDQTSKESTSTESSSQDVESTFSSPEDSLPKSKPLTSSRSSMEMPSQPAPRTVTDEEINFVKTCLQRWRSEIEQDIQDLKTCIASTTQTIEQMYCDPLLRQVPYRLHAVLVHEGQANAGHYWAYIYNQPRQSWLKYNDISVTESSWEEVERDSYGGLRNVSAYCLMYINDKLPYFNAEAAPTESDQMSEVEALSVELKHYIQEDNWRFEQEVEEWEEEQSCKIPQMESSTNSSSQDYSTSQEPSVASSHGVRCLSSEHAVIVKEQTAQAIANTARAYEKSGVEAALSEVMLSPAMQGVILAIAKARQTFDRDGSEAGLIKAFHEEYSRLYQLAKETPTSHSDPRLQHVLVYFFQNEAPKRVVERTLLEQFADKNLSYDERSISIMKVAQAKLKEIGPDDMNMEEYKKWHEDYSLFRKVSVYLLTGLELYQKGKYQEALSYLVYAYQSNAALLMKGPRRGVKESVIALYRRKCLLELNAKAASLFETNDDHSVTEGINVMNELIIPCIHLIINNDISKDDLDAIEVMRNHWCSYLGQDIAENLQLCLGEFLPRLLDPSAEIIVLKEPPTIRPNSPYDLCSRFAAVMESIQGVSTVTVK
The term IC50 denotes the point on the concentration scale where inhibition reaches its midpoint. For the compound `COc1ccc(CC(=O)Nc2nc(-c3ccco3)c(-c3ccco3)s2)cc1`, the IC50 is > 5 µM (inactive).
As for `COc1ccc(-c2ocnc2C(=O)NCc2ccc(F)cc2)cc1`, the figure is 8.2 µM; as for `Cc1cnnn1-c1ccc(C(=O)Nc2cc(Cl)ccc2Cl)cc1`, 43.5 µM.
The figure for `Cc1ccc(-n2nc(C(=O)Nc3ccc(C)cn3)c3ncn(C)c(=O)c32)cc1` is 1.69 µM.
As for `COc1cccc(C(=O)Oc2ccc3c(=O)c(-c4ccc(OC)c(OC)c4)coc3c2)c1`, the IC50 was 0.14 µM.
The figure for `O=C(c1cc(-c2ccncc2)n[nH]1)N1CCC(C(=O)N2CC=C(c3ccccc3)CC2)CC1` is 24.3 µM.
As for `O=C(Nc1cccn(Cc2c(Cl)cccc2Cl)c1=O)c1ccccc1[N+](=O)[O-]`, the figure is 4.79 µM; as for `COc1ccc(NC(=O)CC(=O)c2ccc([N+](=O)[O-])cc2)cc1S(=O)(=O)Nc1ccc(Cl)cc1`, 33.3 µM.
The figure for `CCCn1c(=O)c(-c2ccc(C(=O)NCc3ccc(OC)cc3)cc2)nc2cccnc21` is 1.8 µM; for `O=C(COc1ccc2ccccc2c1)Nc1cccc2ccccc12` it is 22.4 µM.
In the case of `Cn1c(-c2nnc(SCC(=O)NCCc3ccccc3)o2)cc2ccccc21`, the IC50 is 23.7 µM.
As for `Cn1c(SCc2ccccc2)nnc1-c1csc(-c2ccccc2)n1`, the figure is 31.3 µM; as for `CC(C)Cc1nc2oc3c(N(C)CCO)ncnc3c2c2c1CCC2`, > 50 µM (inactive); as for `Cc1ccc2c(c1)-c1c(c(C(=O)N3CCN(c4ccccc4)CC3)nn1C)CS2`, > 50 µM (inactive).
The figure for `Cc1cc(C(=O)N2CCOCC2)c(C)n1-c1ccc(O)cc1` is 41.7 µM; for `O=C(COC(=O)c1ccc2[nH]c3c(c2c1)CCCC3)Nc1ccc2c(c1)OCO2` it is 23.6 µM.
Consider `CCN(c1ccc(NC(=O)CSc2nnc(-c3ccccc3)n2-c2ccc(OC)c(OC)c2)cc1)C(C)C`, for which the IC50 is 6.1 µM.
The figure for `Cc1cnc2nc3c(cc2c1)CN(CCc1ccc(Cl)cc1)CC3` is > 50 µM (inactive); for `O=C(Nc1ccc(N2CCOCC2)cc1)c1ccc(-c2ccc(N3CCCC3)nn2)cc1` it is > 50 µM (inactive).
As for `COc1cccc(NC(=O)Nc2ccc3nc4n(c(=O)c3c2)CCCC4)c1`, the figure is 3.13 µM; as for `Cc1ccccc1Cn1ccc(NC(=O)c2noc(C)c2[N+](=O)[O-])n1`, 6.9 µM; as for `O=C(/C=C/c1ccc2c(c1)OCO2)Nc1nc2c(s1)COCC2`, 27.5 µM.
As for `O=C(COc1ccc(Cl)cc1Cl)Nc1ccccc1-c1nc2ccccc2[nH]1`, the figure is 2.38 µM; as for `CC(C)CC[C@H]1O[C@@H](CC(=O)O)Cc2cc3c(c(O)c21)C(=O)c1sc(=O)n(C)c1C3=O`, 2.74 µM.
As to `CN1CCN(C(=O)c2ccn(-c3ccc4ccc(-c5cnn(C)c5)cn34)n2)CC1`, the IC50 was > 50 µM (inactive).
The figure for `O=C(Nc1ccc2ccccc2n1)c1ccc(Cl)cc1` is 6.26 µM.
As for `Cc1cc(C)cc(-n2cnc3cc(C(=O)NCCC4=CCCCC4)ccc32)c1`, the IC50 is 2.01 µM.
The figure for `CCOc1ccc2nc(NC(=O)C3CCN(S(=O)(=O)c4ccc5c(c4)CC(C)N5C(C)=O)CC3)sc2c1` (centres undefined) is > 50 µM (inactive); for `O=C(Nc1ncc2c(n1)-c1ccccc1CC2)C1CC1` it is 17.6 µM.
As to `CCOc1ccc(Nc2cc(C(=O)NCCc3ccccc3)c3ccccc3n2)cc1`, the IC50 is 26 µM.
The figure for `O=C(Nc1cc(F)c2nc(N3CCOCC3)ccc2c1)C1CC1` is 44.2 µM; for `Cc1nn(-c2ccccc2)c(C)c1C(=O)OCC(=O)Nc1cccc(C#N)c1` it is 15.9 µM.
The figure for `Cc1ccc(C(=O)N2CCCC3(C2)Nc2cccnc2NC3=NC2CCCC2)s1` (centres undefined) is > 50 µM (inactive); for `O=C(NCc1ccc(Br)cc1)c1ccc(-c2cccnc2)nc1` it is 21.7 µM.
The figure for `CCc1ccc(C2c3c(oc4ccccc4c3=O)C(=O)N2c2nncs2)cc1` (centres undefined) is > 50 µM (inactive).
Turning to `O=C(Nc1ccccc1Br)c1ccn(COc2ccccc2F)n1`, the half-inhibitory concentration (IC50) was 18 µM.
As for `Cc1ccc(OCCn2c(=N)n(C(C)C)c3ccccc32)cc1`, the figure is 2.13 µM; as for `Cn1cc(CCNC(=O)c2cc3ccccc3[nH]2)c2cccnc21`, 8.29 µM.
Take `C/C1=C/CC(O)/C=C/C(C)C(O)C(C)/C=C(\C)C(=O)c2c(O)c(C)cc3c2C(=O)C(Cl)=C(NC(=O)\C=C/C=C/C=C\C(C)C(O)CC1=O)C3=O` (centres undefined): the IC50 is 31.3 µM.
The figure for `Cc1c(-c2ccc(C#N)cc2)oc2ccc(Br)cc2c1=O` is 1.8 µM.
As to `O=c1c(OC2O[C@H](CO)[C@H](O)[C@H](O)[C@H]2O)c(-c2ccc(O)cc2)oc2cc(O)cc(O)c12` (some centres undefined), the IC50 is > 50 µM (inactive).
The figure for `COc1ccc(C(C(=O)NCc2ccccc2)N(C(=O)CCN2CCc3ccccc32)c2ccc(C)c(C)c2)cc1` (centres undefined) is > 50 µM (inactive); for `CSc1cccc(C(=O)Nc2ccc(-c3nc4ccccc4[nH]3)cc2)c1` it is 5.8 µM; for `Cc1c(-c2nn3c(-c4ccco4)nnc3s2)cccc1[N+](=O)[O-]` it is 2.49 µM.
The figure for `O=C(Cn1ncc2c(N3CCCCCC3)ncnc21)NCc1ccccc1` is > 50 µM (inactive); for `CCCCCC(=O)N1c2ccccc2NC2=C(C(=O)CC(c3ccc(C(C)(C)C)cc3)C2)C1c1ccncc1` (centres undefined) it is 11.4 µM; for `CCC(C)(C)C1CCC2(CC1)N=C(N)Nc1nc3ccccc3n12` (centres undefined) it is 35.6 µM.
As for `Cc1cccc(NC(=O)CSc2nnc(-c3n[nH]c4c3CCC4)n2N)c1`, the figure is 26.6 µM; as for `CN1CCN(C(=O)c2cc(-c3ccn(CC4CC4)n3)n3ccccc23)CC1`, > 50 µM (inactive); as for `Cc1cc(=O)n(C)c2c(O)c3c(cc12)c(C)cc(=O)n3C`, 43.9 µM.
For the compound `Cc1ccc(Cl)c(-n2nnc(C(=O)Nc3ccccc3C#N)c2C)c1`, the half-maximal inhibitory concentration (IC50) is 12 µM.
Regarding `CC(C)N1CC[C@@H]2[C@H](C1)CN2C(=O)Nc1cccc(F)c1`, the IC50 was > 50 µM (inactive).
As for `Cc1ccc(C)c(NS(=O)(=O)c2cc(-c3cnc(C4CC4)o3)ccc2C)c1`, the figure is 34.7 µM; as for `COc1ccc(-c2cc(-c3nnc(CSc4nc5ccccc5n4C)o3)c3ccccc3n2)cc1OC`, > 50 µM (inactive); as for `O=C(NCCc1ccccc1)c1nnn(Cc2cccc(Cl)c2)c1-n1cccc1`, 1.37 µM.
As for `COc1ccc(-c2nc(Cn3nnc(C(=O)Nc4ccc(C)c(C)c4)c3N)c(C)o2)cc1`, the figure is 2.12 µM; as for `Cc1ccc(Cc2nc(-c3ccc(=O)[nH]c3)no2)cc1`, 0.423 µM; as for `CCN1C(SCc2ccccc2F)=NS(=O)(=O)c2ccccc21`, 12.6 µM.
Take `COc1ccccc1NS(=O)(=O)c1ccc2oc(SCC(=O)c3ccccc3)nc2c1`: the IC50 was > 50 µM (inactive).
The figure for `Fc1ccccc1Cc1nc(-c2ccc3nncn3c2)no1` is 9.69 µM; for `Oc1ccc(-c2nc3cnccn3c2NCCc2ccccc2)c(O)c1` it is > 50 µM (inactive).
Turning to `CCOC(=O)c1ccc(NC(=O)Cn2c(=O)n(CC(=O)NCc3ccco3)c(=O)c3ccccc32)cc1`, the half-inhibitory concentration (IC50) was 2.31 µM.
As for `CCC1=C(c2ccc(C)cc2)S(=O)(=O)NC1=NCC(=O)NC(C)c1ccccc1` (centres undefined), the figure is 19.5 µM.
As for `Cc1c(OCC(=O)Nc2nc3ccccc3[nH]2)ccc2c3c(c(=O)oc12)CCC3`, the figure is 0.541 µM.
